Columns and labels:
[1] = Inhibition of Influenza A virus H5N1 C-terminal PA interaction to N-terminal PB1 (1 to 25) expressed in human 293T cells by ELISA; assay type: cell-based
[2] = Cytotoxicity against MDCK cells; assay type: cell-based, Canis lupus familiaris; settings: dog

`N#Cc1c(-c2cccc(Br)c2)cc(-c2ccccc2)nc1SCC(=O)Nc1ccc(Br)cc1` showed an IC50 [1] of 35 µM and a CC50 [2] of 100 µM.
Work on `Cc1ccc(-c2cc(-c3ccccc3)nc(S[C@@H](C)C(=O)Nc3ccc(C)c(C)c3)c2C#N)cc1` yielded an IC50 [1] of 180 µM and a CC50 [2] of 100 µM.
In the case of `Cc1ccc(-c2cc(-c3ccccc3)nc(SCC(=O)Nc3cccc(Cl)c3)c2C#N)cc1`, the IC50 [1] is reported as 180 µM and the CC50 [2] is reported as 100 µM.
`Cc1ccc(-c2cc(-c3ccccc3)nc(S[C@H](C)C(=O)Nc3cccc(Cl)c3)c2C#N)cc1` showed an IC50 [1] of 125 µM and a CC50 [2] of 100 µM.
`CCOC(=O)c1ccc(NC(=O)CSc2nc(-c3ccccc3)cc(-c3ccc(OCc4ccccc4)c(OCC)c3)c2C#N)cc1` gave an IC50 [1] of 30 µM and a CC50 [2] of 100 µM.
With `Cc1ccc(-c2cc(-c3ccccc3)nc(SCC(=O)Nc3cccc(C)c3)c2C#N)cc1` the IC50 [1] was 80 µM and the CC50 [2] was 100 µM.
With `COc1ccc(-c2cc(-c3ccccc3)nc(SCC(=O)Nc3ccccc3)c2C#N)cc1OC` the IC50 [1] was 125 µM and the CC50 [2] was 100 µM.
